Source: ChEMBL document CHEMBL3784999, “Investigation of 4-amino-5-alkynylpyrimidine-2(1H)-ones as anti-mycobacterial agents” (Bioorg Med Chem, 2016)
Values after ≈ are worked out from the molar mass of the structure shown. Active and inactive are the calls of the source. The rule behind the calls is not given here.

Assays:
[1] = Cytotoxicity against African green monkey Vero cells assessed as cell viability after 3 days by XTT assay; assay type: cell-based; conditions: chlorocebus sabaeus
[2] = system: Mycobacterium tuberculosis; test: Antimycobacterial activity against Mycobacterium tuberculosis H37Ra assessed as inhibition of mycobacterial replication after 6 days by microplate Alamar blue assay; assay type: functional; conditions: 144 h
Mycobacterium avium = test: Antimycobacterial activity against Mycobacterium avium ATCC 25291 assessed as inhibition of mycobacterial replication after 6 days by microplate Alamar blue assay; assay type: functional, Mycobacterium avium subsp. avium ATCC 25291; conditions: ATCC 25291, 144 h
[3] = system: Mycobacterium tuberculosis; test: Antimycobacterial activity against Mycobacterium tuberculosis H37Ra assessed as inhibition of mycobacterial replication at 0.05 ug/ml after 6 days by microplate Alamar blue assay in absence of isoniazid; assay type: functional; conditions: 144 h
[4] = system: Mycobacterium tuberculosis; test: Antimycobacterial activity against Mycobacterium tuberculosis H37Ra infected in BALB/c mouse assessed as reduction of bacterial load in spleen at 1 mg/kg, po administered for 2 weeks started on day 4 post bacterial infection measured 3 days post last dose; assay type: functional, organism-based
[5] = system: Mycobacterium tuberculosis; test: Antimycobacterial activity against Mycobacterium tuberculosis H37Ra infected in BALB/c mouse assessed as reduction of bacterial load in liver at 1 mg/kg, po administered for 2 weeks started on day 4 post bacterial infection measured 3 days post last dose; assay type: functional, organism-based
[6] = system: Mycobacterium tuberculosis; test: Antimycobacterial activity against Mycobacterium tuberculosis H37Ra infected in BALB/c mouse assessed as reduction of bacterial load in lung at 1 mg/kg, po administered for 2 weeks started on day 4 post bacterial infection measured 3 days post last dose; assay type: functional, organism-based
[7] = system: Mycobacterium tuberculosis; test: Antimycobacterial activity against Mycobacterium tuberculosis H37Ra assessed as inhibition of mycobacterial replication at 200 ug/ml after 6 days by microplate Alamar blue assay; assay type: functional; conditions: 144 h
[8] = system: Mycobacterium tuberculosis; test: Antimycobacterial activity against Mycobacterium tuberculosis H37Ra assessed as inhibition of mycobacterial replication at 50 ug/ml after 6 days by microplate Alamar blue assay; assay type: functional; conditions: 144 h

CCCCCCCCCCCCC#Cc1c[nH]c(=O)nc1N
CC50 at 72 h [1]: > 200 µg/mL

CO[C@H]1/C=C/O[C@@]2(C)Oc3c(C)c(O)c4c(O)c(c(/C=N/N5CCN(C)CC5)c(O)c4c3C2=O)NC(=O)/C(C)=C\C=C\[C@H](C)[C@H](O)[C@@H](C)[C@@H](O)[C@@H](C)[C@H](OC(C)=O)[C@@H]1C [RIFAMPIN]
MIC90 [2]: 0.5 µg/mL (≈ 0.608 µM) | MIC90 (Mycobacterium avium): 2 µg/mL (≈ 2.43 µM)

NNC(=O)c1ccncc1 [ISONIAZID]
inhibition at 0.05 µg/mL [3]: 10% | Activity [4]: inactive | Activity [5]: inactive | Activity [6]: inactive

CCCCCCCCC#Cc1c[nH]c(=O)nc1N
MIC50 [2]: 50 µg/mL (≈ 202 µM) | CC50 at 72 h [1]: > 200 µg/mL | inhibition at 200 µg/mL [7]: 100% | inhibition at 50 µg/mL [8]: 50%
